The source of these data is US4931444A, “5-lipoxygenase inhibiting 4-(4-phenyl-1-piperazinyl)phenols” (Janssen Pharmaceutica N.V., priority 1989, dated 1990).

Structures are written as SMILES. Counter-ions that a name gives are not always drawn.

For assay [1], the target named is T1, 5-lipoxygenase (Rattus norvegicus, UniProt P12527).
T1 construct: The supernatant, aliquoted and stored at -70° C., was used as the source of 5-lipoxygenase activity; endogenous in cells; host or cells: Rat basophilic leukemia (RBL) cells, 10,000×g supernatant of the sonicate (crude, not purified)
T1 sequence (P12527 1-673): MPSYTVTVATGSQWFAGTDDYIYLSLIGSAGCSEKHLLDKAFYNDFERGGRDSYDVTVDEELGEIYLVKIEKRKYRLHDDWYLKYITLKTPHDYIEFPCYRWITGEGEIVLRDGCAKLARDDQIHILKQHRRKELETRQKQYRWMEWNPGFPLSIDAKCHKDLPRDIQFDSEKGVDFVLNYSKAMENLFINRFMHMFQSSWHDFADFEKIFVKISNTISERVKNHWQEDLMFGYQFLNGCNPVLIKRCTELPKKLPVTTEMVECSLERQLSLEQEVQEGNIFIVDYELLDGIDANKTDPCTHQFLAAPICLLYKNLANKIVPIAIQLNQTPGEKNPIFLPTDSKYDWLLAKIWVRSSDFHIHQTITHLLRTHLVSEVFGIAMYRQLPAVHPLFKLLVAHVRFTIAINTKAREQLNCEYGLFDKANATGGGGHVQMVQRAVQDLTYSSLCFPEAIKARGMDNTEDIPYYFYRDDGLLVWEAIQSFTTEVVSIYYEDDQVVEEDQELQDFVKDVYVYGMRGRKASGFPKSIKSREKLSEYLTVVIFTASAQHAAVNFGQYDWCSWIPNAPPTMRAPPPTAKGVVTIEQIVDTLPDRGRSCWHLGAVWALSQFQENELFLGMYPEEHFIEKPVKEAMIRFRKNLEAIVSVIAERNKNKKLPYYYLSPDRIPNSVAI
Kind of assay: Arachidonate 5-lipoxygenase inhibition in Rat Basophilic Leukemia Cells Supernatant. Set-up: dose or concentration left out as unconfirmed. Format: biochemical. The conditions noted are these: Column A; 5-HPETE and LTB4 formation; read-out: 5-lipoxygenase inhibition in RBL cells supernatant, % inhibition.

The test system of assay [2] is Dextran-induced edema formation in the ears of mice. Kind of assay: Inhibition of Dextran-induced edema formation in the ears of mice. Format: in vivo, male Swiss mice. As to conditions: Column B, at 10 mg/kg body weight, 1 h before dextran; for inhibition in vivo at 10 mg/kg: Mus musculus, po, read-out: inhibition of Dextran-induced blueing of the ears of mice, % inhibition. The text has this:
Inhibition of Dextran-induced edema formation in the ears of mice.
Intravenous injection of Dextran T500® (Pharmacia) and pontamine sky-blue dye into mice results in increased vascular permeability and edema formation, characterized by an intense blueing of the ears. Determination of the amount of extravasated dye is presumed to yield a quantitative measure of the 5-lipoxygenase inhibiting activity of the test compounds (Drug. Dev. Res. 8, 213-218, 1986). Unfasted male Swiss mice weighing 24-26 g were used in the experiments which were performed between 13.00 pm and 17.00 pm at an ambient temperature of 22±1° C. The mice were treated orally with a test compound of formula (I) dissolved in a volume of […] of either polyethyleneglycol (PEG 200) or hydroxypropyl cyclodextrine at doses varying between 1.25 and 40 mg per kg bodyweight. In control experiments the mice were administered an identical amount of solvent alone. One hour after treatment there was injected intravenously an isotonic saline solution containing 60 mg/ml Dextran T500® and 13 mg/ml pontamine sky-blue dye in a volume of 0.1 ml per 10 g bodyweight. One hour and forty-five minutes later the animals were sacrificed by ether and their ears were removed. Extraction and quantification of the extravasated dye were performed as described (Drug Dev. Res. 8, 213-218, 1986). The calculated percentage of inhibition of ear blueing upon administration of a compound of formula (I) at a dose of 10 mg/kg bodyweight is shown in the second column of table 12.

A word on the inhibition: it is the percentage by which the read-out fell short of the control. As to `CCCN1C(=O)N(c2ccc(N3CCN(c4ccc(O)cc4)CC3)cc2)C(C)(C)C1=O` [Compound 6.08], the inhibition in assay [1] amounted to 75%. Also, in assay [2], the inhibition in vivo at 10 mg/kg turned out to be 89%.
Taken in the same sequence, the figures for `Cc1cc(N2CCN(c3ccc(-n4c(C)nn(C(C)C(=O)c5ccc(Br)cc5)c4=O)cc3)CC2)cc(C)c1O` (stereo not drawn) [Compound 7.51, 2-[2-(4-bromophenyl)-1-methyl-2-oxoethyl]-2,4-dihydro-4-[4-[4-(4-hydroxy-3,5-dimethylphenyl)-1-piperazinyl]phenyl]-5-methyl-3H-1,2,4-triazol-3-one] were 93% and 83%.
As to `CCCCN1C(=O)N(c2ccc(N3CCN(c4ccc(O)cc4)CC3)cc2)CC1(C)C` [Compound 4.13], the inhibition in assay [1] turned out to be 95%.
Take `CC(C(=O)c1ccc(Br)cc1)n1ncn(-c2ccc(N3CCN(c4ccc(O)cc4)CC3)cc2)c1=O` (stereo not drawn) [Compound 7.16]: the inhibition in assay [1] was 94%. Moreover, the inhibition in vivo at 10 mg/kg in assay [2] came out at 91%.
For `CCC(C(=O)c1ccc(Br)cc1)n1ncn(-c2ccc(N3CCN(c4ccc(O)cc4)CC3)cc2)c1=O` (stereo not drawn) [Compound 7.36] the same measures were 100% and 93%.
Taken in the same sequence, the figures for `CC(C(=O)c1ccc(F)cc1)n1ncn(-c2ccc(N3CCN(c4ccc(O)cc4)CC3)cc2)c1=O` (stereo not drawn) [Compound 7.14] were 66% and 70%.
`CCN(C1=NC(C(C)C)CS1)c1ccc(N2CCN(c3ccc(O)cc3)CC2)cc1` (stereo not drawn) [Compound 3.14]: the inhibition in vivo at 10 mg/kg in assay [2] was determined as 74%.
Take `CC12CCCN1C(=O)N(c1ccc(N3CCN(c4ccc(O)cc4)CC3)cc1)C2=O` (stereo not drawn) [Compound 5.10]: in assay [1], the inhibition turned out to be 69%. Besides, in assay [2], the inhibition in vivo at 10 mg/kg was determined as 75%.
With `O=[N+]([O-])c1cc(F)ccc1N1CCN(c2ccc(O)cc2)CC1` [Compound 1.16, 4-[4-(4-fluoro-2-nitrophenyl)-1-piperazinyl]phenol monohydrochloride], the inhibition in assay [1] is 94%.
As to `Cc1nn(C(C)C(=O)c2ccc(Br)cc2)c(=O)n1-c1ccc(N2CCN(c3ccc(O)cc3)CC2)cc1` (stereo not drawn) [Compound 7.57, 2-[2-(4-bromophenyl)-1-methyl-2-oxoethyl]-2,4-dihydro-4-[4-[4-(4-hydroxyphenyl)-1-piperazinyl]phenyl]-5-methyl-3H-1,2,4-triazol-3-one], the inhibition in assay [1] turned out to be 90%. In addition, in assay [2], the inhibition in vivo at 10 mg/kg was 82%.
As to `CC(C)N1C(=O)N(c2ccc(N3CCN(c4ccc(O)cc4)CC3)cc2)C(C)(C)C1=O` [Compound 6.09], in assay [1], the inhibition was determined as 84%.
Regarding `CCC(C)N1C(=O)N(c2ccc(N3CCN(c4ccc(O)cc4)CC3)cc2)C(C)(C)C1=O` (stereo not drawn) [Compound 6.12], the inhibition in assay [1] is 90%. Moreover, the inhibition in vivo at 10 mg/kg in assay [2] was 53%.
For `Cc1nn(C(C)C(O)c2ccc(Br)cc2)c(=O)n1-c1ccc(N2CCN(c3ccc(O)cc3)CC2)cc1` (stereo not drawn) [Compound 7.70, 2-[2-(4-bromophenyl)-2-hydroxy-1-methylethyl]-2,4-dihydro-4-[4-[4-(4-hydroxyphenyl)-1-piperazinyl]phenyl]-5-methyl-3H-1,2,4-triazol-3-one], the inhibition in vivo at 10 mg/kg in assay [2] stood at 85%.
On to `CCC(C)n1ncn(-c2ccc(N3CCN(c4ccc(O)cc4)CC3)c(Br)c2)c1=O` (stereo not drawn) [Compound 7.21], for which the inhibition in assay [1] is 97%.
Consider `CCC(C)n1nc(C)n(-c2ccc(N3CCN(c4cc(C)c(O)c(C)c4)CC3)cc2)c1=O` (stereo not drawn) [Compound 7.50, 2,4-dihydro-4-[4-[4-(4-hydroxy-3,5-dimethylphenyl)-1-piperazinyl]phenyl]-5-methyl-2-(1-methylpropyl)-3H-1,2,4-triazol-3-one], for which, in assay [1], the inhibition worked out at 52%. Besides, the inhibition in vivo at 10 mg/kg in assay [2] was 88%.
`CCN1C(=S)N(c2ccc(N3CCN(c4ccc(O)cc4)CC3)cc2)C(=O)C1(C)C` [Compound 5.13]: in assay [1], the inhibition was found to be 71%. The inhibition in vivo at 10 mg/kg in assay [2] worked out at 15%.
For the molecule `CCC(C)n1nc(C)n(-c2ccc(N3CCN(c4ccc(O)c(C)c4)CC3)cc2)c1=O` (stereo not drawn) [Compound 7.38], the inhibition in assay [1] was 100%. The inhibition in vivo at 10 mg/kg in assay [2] is 88%.
For `CCCCN1CCCSC1=Nc1ccc(N2CCN(c3ccc(O)cc3)CC2)cc1` [Compound 2.01] the same measures were 90% and 71%.
For `CCCCN1C(=O)N(c2ccc(N3CCN(c4ccc(O)cc4)CC3)cc2)C(=O)C1C` (stereo not drawn) [Compound 5.03] the same measures were 79% and 72%.
For `CC(=O)C(C)N1C(=O)N(c2ccc(N3CCN(c4ccc(O)cc4)CC3)cc2)C(=O)C1(C)C` (stereo not drawn) [Compound 5.08] the same measures were 45% and 76%.
Take `CCCCN1C(=O)N(c2ccc(N3CCN(c4ccc(O)cc4)CC3)cc2)C(C)(C)C1=O` [Compound 6.10]: the inhibition in assay [1] worked out at 90%. For the same molecule, the inhibition in vivo at 10 mg/kg in assay [2] is 93%.
For `Cc1nn(CC(C)C)c(=O)n1-c1ccc(N2CCN(c3ccc(O)cc3)CC2)cc1` [Compound 7.34] the same measures were 87% and 66%.
Take `Cn1c(=O)n(C)c(=O)n(-c2ccc(N3CCN(c4ccc(O)cc4)CC3)cc2)c1=O` [Compound 9.05]: the inhibition in vivo at 10 mg/kg in assay [2] worked out at 83%.
`CCC(C)n1nc(C)n(-c2ccc(N3CCN(c4ccc(O)cc4)CC3)cc2)c1=O` (stereo not drawn) [Compound 7.33, 2,4-dihydro-4-[4-[4-(4-hydroxyphenyl)-1-piperazinyl]phenyl]-5-methyl-2-(1-methylpropyl)-3H-1,2,4-triazol-3-one]: the inhibition in assay [1] is 80%. Further, the inhibition in vivo at 10 mg/kg in assay [2] was found to be 87%.
Regarding `CCC(C(O)c1ccccc1)n1ncn(-c2ccc(N3CCN(c4ccc(O)cc4)CC3)cc2)c1=O` (stereo not drawn) [Compound 7.69], the inhibition in vivo at 10 mg/kg in assay [2] came out at 85%.
Turning to `CCCn1c(=O)n(CCC)c(=O)n(-c2ccc(N3CCN(c4ccc(O)cc4)CC3)cc2)c1=O` [Compound 9.03], in assay [1], the inhibition was found to be 58%. The inhibition in vivo at 10 mg/kg in assay [2] worked out at 94%.
Consider `CC(C(O)c1ccc(Br)cc1)n1ncn(-c2ccc(N3CCN(c4ccc(O)cc4)CC3)cc2)c1=O` (stereo not drawn) [Compound 7.68], for which the “inhibition of Dextran-induced blueing of the ears of mice, % inhibition” value in assay [2] (oral, 10 mg/kg) came out at 81%.
For `CC(C(O)c1ccc(Br)cc1)n1ncn(-c2ccc(N3CCN(c4ccc(O)cc4)CC3)cc2)c1=O` (stereo not drawn) [Compound 7.35], the inhibition in assay [1] was 100%. Moreover, the inhibition in vivo at 10 mg/kg in assay [2] was 79%.
Turning to `CCC(C(=O)c1ccc(Cl)cc1)n1ncn(-c2ccc(N3CCN(c4ccc(O)cc4)CC3)cc2)c1=O` (stereo not drawn) [Compound 7.41], the inhibition in vivo at 10 mg/kg in assay [2] stood at 82%.
On to `CCN1CCN(c2ccc(N3CCN(c4ccc(O)cc4)CC3)cc2)C1=O` [Compound 4.02], for which the inhibition in assay [1] is 84%.
Take `CCCn1c(=O)n(-c2ccc(N3CCN(c4ccc(O)cc4)CC3)cc2)c(=O)n(C(C)C(=O)c2ccc(Br)cc2)c1=O` (stereo not drawn) [Compound 9.07]: in assay [2], the inhibition in vivo at 10 mg/kg was found to be 83%.
On to `O=C1CCCCC1n1ncn(-c2ccc(N3CCN(c4ccc(O)cc4)CC3)cc2)c1=O` (stereo not drawn) [Compound 7.18], for which the inhibition in assay [1] is 67%. Besides, in assay [2], the inhibition in vivo at 10 mg/kg stood at 87%.
Regarding `CCCn1cnn(-c2ccc(N3CCN(c4ccc(O)cc4)CC3)cc2)c1=O` [Compound 8.05], the inhibition in assay [1] turned out to be 90%.
On the same count and under the same terms, to `CCCCn1c(=O)cnn(-c2ccc(N3CCN(c4ccc(O)cc4)CC3)cc2)c1=O` [Compound 10.05, 4-butyl-2-[4-[4-(4-hydroxyphenyl)-1-piperazinyl]phenyl]-1,2,4-triazine-3,5(2H,4H)-dione] belongs 80%.
As for `CC(C(=O)c1ccc(Cl)cc1)n1ncn(-c2ccc(N3CCN(c4ccc(O)cc4)CC3)cc2)c1=O` (stereo not drawn) [Compound 7.15], the inhibition in assay [1] stood at 51%. The inhibition in vivo at 10 mg/kg in assay [2] was 97%.
In the case of `CCC(C)n1ncn(-c2ccc(N3CCN(c4ccc(O)cc4)CC3)cc2)c1=O` (stereo not drawn) [Compound 7.06], in assay [1], the inhibition was found to be 97%.
